One may read the IC50 as the concentration at which inhibition is half-maximal.

Our source for the IC50 values is patent publication US10246453B2, “Benzenesulfonamide compounds and their use as therapeutic agents” (Xenon Pharmaceuticals Inc., priority 2016, dated 2019).

Molecules are shown by their SMILES. Structures can show the parent of a compound that is named as a salt.

Data set [1] deals with NaV1.1 (Homo sapiens (Human), UniProt P35498). The experiment in a line: Sodium Influx Assay (Flux), NaV1.1. Conditions: Trex HEK293 cells, ANG2 dye; arithmetic mean. The data set is classed as cell-based.
In data set [2] the target is NaV1.6 (Homo sapiens (Human), UniProt Q9UQD0). The data set can be described thus: Sodium Influx Assay (Flux), NaV1.6. As to conditions: read-out: Flux NaV1.6 IC50; Trex HEK293 cells, ANG2 dye; arithmetic mean.
In data set [3] the target is NaV1.5 (Homo sapiens (Human), UniProt Q14524). The data set can be described thus: Sodium Influx Assay (Flux), NaV1.5. Conditions: read-out: Flux NaV1.5 IC50; Trex HEK293 cells, ANG2 dye; arithmetic mean.
Sequence of NaV1.5 (Q14524 other isoform, or with tags, fused parts or gaps): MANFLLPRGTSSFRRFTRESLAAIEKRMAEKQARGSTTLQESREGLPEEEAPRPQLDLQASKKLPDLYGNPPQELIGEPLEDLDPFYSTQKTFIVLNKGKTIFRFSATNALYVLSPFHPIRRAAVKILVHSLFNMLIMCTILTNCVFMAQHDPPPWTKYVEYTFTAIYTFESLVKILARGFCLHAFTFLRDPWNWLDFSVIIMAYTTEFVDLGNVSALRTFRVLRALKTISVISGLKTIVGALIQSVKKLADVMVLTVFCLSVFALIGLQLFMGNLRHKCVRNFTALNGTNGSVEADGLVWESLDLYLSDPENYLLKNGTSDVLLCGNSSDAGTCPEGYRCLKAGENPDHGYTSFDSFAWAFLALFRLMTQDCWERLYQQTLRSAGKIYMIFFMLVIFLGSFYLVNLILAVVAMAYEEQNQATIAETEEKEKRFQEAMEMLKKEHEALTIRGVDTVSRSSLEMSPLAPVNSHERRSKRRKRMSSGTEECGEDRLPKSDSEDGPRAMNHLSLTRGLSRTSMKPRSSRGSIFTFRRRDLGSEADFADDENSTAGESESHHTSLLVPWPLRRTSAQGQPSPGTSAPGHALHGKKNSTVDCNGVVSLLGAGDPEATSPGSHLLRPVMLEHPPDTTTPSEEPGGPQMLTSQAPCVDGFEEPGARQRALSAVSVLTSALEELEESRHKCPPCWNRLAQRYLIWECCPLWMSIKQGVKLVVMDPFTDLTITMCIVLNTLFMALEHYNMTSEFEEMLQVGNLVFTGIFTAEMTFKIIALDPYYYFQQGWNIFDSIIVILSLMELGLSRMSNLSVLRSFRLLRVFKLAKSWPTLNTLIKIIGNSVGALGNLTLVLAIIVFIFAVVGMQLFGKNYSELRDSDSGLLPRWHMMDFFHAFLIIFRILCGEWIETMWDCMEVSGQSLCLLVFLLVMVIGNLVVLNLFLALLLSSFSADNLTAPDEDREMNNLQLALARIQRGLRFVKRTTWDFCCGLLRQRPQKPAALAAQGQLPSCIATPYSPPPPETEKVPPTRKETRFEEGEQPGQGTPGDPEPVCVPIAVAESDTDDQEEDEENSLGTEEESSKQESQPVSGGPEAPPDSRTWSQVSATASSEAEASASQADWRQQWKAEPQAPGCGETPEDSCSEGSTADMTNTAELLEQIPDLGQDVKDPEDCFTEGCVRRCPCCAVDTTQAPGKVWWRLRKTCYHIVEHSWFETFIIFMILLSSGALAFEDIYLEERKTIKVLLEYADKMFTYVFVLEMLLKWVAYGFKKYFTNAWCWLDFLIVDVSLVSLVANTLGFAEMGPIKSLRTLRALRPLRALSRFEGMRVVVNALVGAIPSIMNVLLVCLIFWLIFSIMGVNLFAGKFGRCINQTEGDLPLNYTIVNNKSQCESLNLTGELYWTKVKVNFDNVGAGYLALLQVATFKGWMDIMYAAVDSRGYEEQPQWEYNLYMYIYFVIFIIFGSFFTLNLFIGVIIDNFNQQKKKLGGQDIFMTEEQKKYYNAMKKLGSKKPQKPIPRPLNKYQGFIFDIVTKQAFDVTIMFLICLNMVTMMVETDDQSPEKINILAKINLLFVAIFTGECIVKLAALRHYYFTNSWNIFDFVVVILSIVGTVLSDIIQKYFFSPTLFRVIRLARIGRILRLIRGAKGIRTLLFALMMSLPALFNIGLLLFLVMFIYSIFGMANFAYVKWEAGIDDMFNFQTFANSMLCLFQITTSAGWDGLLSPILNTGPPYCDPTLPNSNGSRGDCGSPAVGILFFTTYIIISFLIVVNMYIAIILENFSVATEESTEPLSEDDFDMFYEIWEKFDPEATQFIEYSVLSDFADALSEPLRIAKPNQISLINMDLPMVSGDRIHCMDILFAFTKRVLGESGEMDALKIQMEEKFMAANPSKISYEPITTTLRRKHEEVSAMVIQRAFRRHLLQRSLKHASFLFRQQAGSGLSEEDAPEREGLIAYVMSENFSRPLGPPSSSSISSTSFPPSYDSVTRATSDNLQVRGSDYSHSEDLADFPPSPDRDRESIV

Consider `Cc1cc(S(=O)(=O)Nc2cscn2)c(F)cc1N(C)[C@H]1CCN(Cc2nc(C(C)C)cs2)C1` [Example 145, (S)-2-fluoro-4-((1-((4-isopropylthiazol-2-yl)methyl)pyrrolidin-3-yl)(methyl)amino)-5-methyl-N-(thiazol-4-yl)benzenesulfonamide], for which the half-maximal inhibitory concentration (IC50) came out at 9.63 µM in data set [1], 515 nM in data set [2] and 17.1 µM in data set [3].

On to `Cc1cc(S(=O)(=O)Nc2cscn2)c(F)cc1N(C)[C@H]1CCN(Cc2ncc(Cl)s2)C1` [Example 146, (S)-4-((1-((5-chlorothiazol-2-yl)methyl)pyrrolidin-3-yl)(methyl)amino)-2-fluoro-5-methyl-N-(thiazol-4-yl)benzenesulfonamide], for which the IC50 in data set [1] is 9.32 µM; in data set [2], 4400 nM; in data set [3], 12.1 µM.

Turning to `Cc1cc(S(=O)(=O)Nc2cscn2)c(F)cc1N(C)[C@H]1CCN(Cc2ccn(C(F)F)n2)C1` [Example 147, (S)-4-((1-((1-(difluoromethyl)-1H-pyrazol-3-yl)methyl)pyrrolidin-3-yl)(methyl)amino)-2-fluoro-5-methyl-N-(thiazol-4-yl)benzenesulfonamide], the values for the IC50 in data set [1], in data set [2] and in data set [3] were above 30 µM, 482 nM and above 30 µM, respectively.

Turning to `Cc1ccccc1CN1CC[C@H](N(C)c2cc(F)c(S(=O)(=O)Nc3cscn3)cc2C)C1` [Example 148, (S)-2-fluoro-5-methyl-4-(methyl(1-(2-methylbenzyl)pyrrolidin-3-yl)amino)-N-(thiazol-4-yl)benzenesulfonamide], the results for the concentration for half-maximal inhibition (IC50) in data set [1], in data set [2] and in data set [3] were 7.58 µM, 129 nM and 12.4 µM, respectively.

With `Cc1cc(S(=O)(=O)Nc2cscn2)c(F)cc1N(C)[C@H]1CCN(C2Cc3ccccc3C2)C1` [Example 149, (S)-4-((1-(2,3-dihydro-1H-inden-2-yl)pyrrolidin-3-yl)(methyl)amino)-2-fluoro-5-methyl-N-(thiazol-4-yl)benzenesulfonamide], the IC50 in data set [1] is 6.02 µM; in data set [2], 613 nM; in data set [3], 9.18 µM.

Regarding `Cc1cn(C)c(CN2CC[C@H](N(C)c3cc(F)c(S(=O)(=O)Nc4cscn4)cc3C)C2)n1` [Example 150, (S)-4-((1-((1,4-dimethyl-1H-imidazol-2-yl)methyl)pyrrolidin-3-yl)(methyl)amino)-2-fluoro-5-methyl-N-(thiazol-4-yl)benzenesulfonamide], the results for the IC50 in data set [1], in data set [2] and in data set [3] were above 30 µM, 954 nM and above 30 µM, respectively.

As for `Cc1cc(S(=O)(=O)Nc2cscn2)c(F)cc1N(C)[C@H]1CCN(Cc2cc3n(n2)CCCC3)C1` [Example 151, (S)-2-fluoro-5-methyl-4-(methyl(1-((4,5,6,7-tetrahydropyrazolo[1,5-a]pyridin-2-yl)methyl)pyrrolidin-3-yl)amino)-N-(thiazol-4-yl)benzenesulfonamide], the IC50 in data set [1] was above 30 µM; in data set [2], 410 nM; in data set [3], above 30 µM.

Turning to `Cc1cc(S(=O)(=O)Nc2cscn2)c(F)cc1N(C)[C@H]1CCN(Cc2nc(C(F)(F)F)cs2)C1` [Example 152, (S)-2-fluoro-5-methyl-4-(methyl(1-((4-(trifluoromethyl)thiazol-2-yl)methyl)pyrrolidin-3-yl)amino)-N-(thiazol-4-yl)benzenesulfonamide], the IC50 in data set [1] is 7.21 µM; in data set [2] it was 1700 nM; in data set [3], 8.91 µM.

`Cc1cc(S(=O)(=O)Nc2cscn2)c(F)cc1N(C)[C@H]1CCN(Cc2ccn(CC(F)F)n2)C1` [Example 153, (S)-4-((1-((1-(2,2-difluoroethyl)-1H-pyrazol-3-yl)methyl)pyrrolidin-3-yl)(methyl)amino)-2-fluoro-5-methyl-N-(thiazol-4-yl)benzenesulfonamide 2,2,2-trifluoroacetate]: the IC50 in data set [1] is above 30 µM; in data set [2] it was 185 nM; in data set [3] it was above 30 µM.

Turning to `Cc1nc(CN2CC[C@H](N(C)c3cc(F)c(S(=O)(=O)Nc4cscn4)cc3C)C2)c(C(F)(F)F)o1` [Example 154, (S)-2-fluoro-5-methyl-4-(methyl(1-((2-methyl-5-(trifluoromethyl)oxazol-4-yl)methyl)pyrrolidin-3-yl)amino)-N-(thiazol-4-yl)benzenesulfonamide 2,2,2-trifluoroacetate], the values for the IC50 in data set [1], in data set [2] and in data set [3] were 16.6 µM, 5570 nM and 21.7 µM, respectively.

`Cc1cc(S(=O)(=O)Nc2cscn2)c(F)cc1N(C)[C@H]1CCN(Cc2ccccc2F)C1` [Example 155, (S)-2-fluoro-4-((1-(2-fluorobenzyl)pyrrolidin-3-yl)(methyl)amino)-5-methyl-N-(thiazol-4-yl)benzenesulfonamide]: the half-maximal inhibitory concentration (IC50) in data set [1] was 12.6 µM; in data set [2], 220 nM; in data set [3], 14.4 µM.

In the case of `Cc1cc(S(=O)(=O)Nc2cscn2)c(F)cc1O[C@@]1(C)CCN(Cc2ccccc2)C1` [Example 159, (S)-4-((1-benzyl-3-methylpyrrolidin-3-yl)oxy)-2-fluoro-5-methyl-N-(thiazol-4-yl)benzenesulfonamide formate], the 50% inhibitory concentration (IC50) is above 30 µM in data set [1], 178 nM in data set [2] and above 30 µM in data set [3].

Regarding `CN(c1cc(F)c(S(=O)(=O)Nc2cscn2)cc1Cl)[C@H]1CCN(Cc2cccc(C(F)F)n2)C1` [Example 160, (S)-5-chloro-4-((1-((6-(difluoromethyl)pyridin-2-yl)methyl)pyrrolidin-3-yl)(methyl)amino)-2-fluoro-N-(thiazol-4-yl)benzenesulfonamide], the IC50 in data set [1] was 26.7 µM; in data set [2], 1690 nM; in data set [3], above 30 µM.

As to `CN(c1cc(F)c(S(=O)(=O)Nc2cscn2)cc1Cl)[C@H]1CCN(Cc2cccc(C(C)(C)O)c2)C1` [Example 161, (S)-5-chloro-2-fluoro-4-((1-(3-(2-hydroxypropan-2-yl)benzyl)pyrrolidin-3-yl)(methyl)amino)-N-(thiazol-4-yl)benzenesulfonamide formate], the 50% inhibitory concentration (IC50) was 26 µM in data set [1], 4850 nM in data set [2] and above 30 µM in data set [3].

For `O=S(=O)(Nc1cscn1)c1cc(Cl)c(O[C@H]2CCN(Cc3cccc(C(F)F)c3)C[C@H]2F)cc1F` [Example 162, 5-chloro-4-(((3R,4S)-1-(3-(difluoromethyl)benzyl)-3-fluoropiperidin-4-yl)oxy)-2-fluoro-N-(thiazol-4-yl)benzenesulfonamide], the half-maximal inhibitory concentration (IC50) in data set [1] was determined as 6.88 µM; in data set [2], 6130 nM; in data set [3] it was 5.78 µM.

Take `CN(c1cc(F)c(S(=O)(=O)Nc2cscn2)cc1Cl)[C@H]1CCN(Cc2nc(C(F)F)ccc2F)C1` [Example 163, (S)-5-chloro-4-((1-((6-(difluoromethyl)-3-fluoropyridin-2-yl)methyl)pyrrolidin-3-yl)(methyl)amino)-2-fluoro-N-(thiazol-4-yl)benzenesulfonamide formate]: the 50% inhibitory concentration (IC50) is above 30 µM in data set [1], 2800 nM in data set [2] and above 30 µM in data set [3].

`CN(c1cc(F)c(S(=O)(=O)Nc2cscn2)cc1Cl)[C@H]1CCN(Cc2ccc(C(F)(F)F)o2)C1` [Example 164, (S)-5-chloro-2-fluoro-4-(methyl(1-((5-(trifluoromethyl)furan-2-yl)methyl)pyrrolidin-3-yl)amino)-N-(thiazol-4-yl)benzene-sulfonamide 2,2,2-trifluoroacetate]: the results for the IC50 in data set [1], in data set [2] and in data set [3] were 6.03 µM, 4450 nM and 12.9 µM, respectively.
